Measured values: PubChem BioAssay (NCI)
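Five concentrations, 48 hours, 96-well plates. At the GI50, growth is halved. TGI marks complete inhibition of growth.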

Columns and labels:
Assay in all cases: NCI anticancer screen, dose series, 48 h
A498 renal = system: A498 renal
HOP-92 NSCLC = system: HOP-92 NSCLC
MALME-3M melanoma = system: MALME-3M melanoma
SW-620 colon = system: SW-620 colon
MDA-MB-435 = system: MDA-MB-435
SR leukemia = system: SR leukemia
M14 melanoma = system: M14 melanoma
UO-31 renal = system: UO-31 renal
KM12 colon = system: KM12 colon
ACHN renal = system: ACHN renal
U251 CNS = system: U251 CNS
RXF 393 renal = system: RXF 393 renal
IGROV1 ovarian = system: IGROV1 ovarian
SN12C renal = system: SN12C renal
CCRF-CEM leukemia = system: CCRF-CEM leukemia
DU-145 prostate = system: DU-145 prostate
RPMI-8226 leukemia = system: RPMI-8226 leukemia
OVCAR-3 ovarian = system: OVCAR-3 ovarian
MCF7 breast = system: MCF7 breast
NCI-H226 lung = system: NCI-H226 lung
HCT-116 colon = system: HCT-116 colon
T-47D breast = system: T-47D breast
SF-295 CNS = system: SF-295 CNS
UACC-257 melanoma = system: UACC-257 melanoma
786-0 renal = system: 786-0 renal
COLO 205 colon = system: COLO 205 colon
SF-268 CNS = system: SF-268 CNS
HCT-15 colon = system: HCT-15 colon
UACC-62 melanoma = system: UACC-62 melanoma
SNB-19 CNS = system: SNB-19 CNS
NCI/ADR-RES ovarian = system: NCI/ADR-RES ovarian
A549 NSCLC = system: A549 NSCLC
NCI-H23 lung = system: NCI-H23 lung
SK-MEL-2 melanoma = system: SK-MEL-2 melanoma
LOX IMVI melanoma = system: LOX IMVI melanoma
EKVX NSCLC = system: EKVX NSCLC
SK-MEL-28 melanoma = system: SK-MEL-28 melanoma
BT-549 breast = system: BT-549 breast
HS 578T breast = system: HS 578T breast
SK-MEL-5 melanoma = system: SK-MEL-5 melanoma
OVCAR-4 ovarian = system: OVCAR-4 ovarian
MDA-MB-231 breast = system: MDA-MB-231 breast
SK-OV-3 ovarian = system: SK-OV-3 ovarian
K-562 leukemia = system: K-562 leukemia
HOP-62 NSCLC = system: HOP-62 NSCLC
SNB-75 CNS = system: SNB-75 CNS
HT29 colon = system: HT29 colon
HCC-2998 colon = system: HCC-2998 colon
HL-60(TB) leukemia = system: HL-60(TB) leukemia
TK-10 renal = system: TK-10 renal
SF-539 CNS = system: SF-539 CNS
MOLT-4 leukemia = system: MOLT-4 leukemia
NCI-H522 lung = system: NCI-H522 lung
OVCAR-8 ovarian = system: OVCAR-8 ovarian
OVCAR-5 ovarian = system: OVCAR-5 ovarian
PC-3 prostate = system: PC-3 prostate
NCI-H460 lung = system: NCI-H460 lung

Which GI50 (A498 renal) does the source give for `CCCCC[C@H]1CC=C2C(=O)C=C[C@@H]2CC=CCCCC(=O)O[C@@H](CCCCC)CC=C2C(=O)C=C[C@@H]2CC=CCCCC(=O)O[C@@H](CCCCC)CC=C2C(=O)C=C[C@@H]2CC=CCCCC(=O)O1` here?
Its GI50 is 750 nM.

What about the TGI (A498 renal) of the same molecule?
Its TGI is 2410 nM.

And the GI50 (HOP-92 NSCLC)?
Its GI50 is 359 nM.

And the TGI (HOP-92 NSCLC)?
The TGI was 1820 nM.

And the GI50 (MALME-3M melanoma)?
The GI50 was 295 nM.

And the TGI (MALME-3M melanoma)?
Its TGI is greater than 8750 nM.

What about the GI50 (SW-620 colon) of the same molecule?
The GI50 was 373 nM.

And the TGI (SW-620 colon)?
Its TGI is 1510 nM.

What about the GI50 (MDA-MB-435) of the same molecule?
The GI50 was 183 nM.

What about the TGI (MDA-MB-435) of the same molecule?
The TGI was 526 nM.

And the GI50 (SR leukemia)?
Its GI50 is 229 nM.

What about the TGI (SR leukemia) of the same molecule?
Its TGI is 1340 nM.

What about the GI50 (M14 melanoma) of the same molecule?
The GI50 was 279 nM.

And the TGI (M14 melanoma)?
The TGI was 1790 nM.

And the GI50 (UO-31 renal)?
The GI50 was 457 nM.

And the TGI (UO-31 renal)?
The TGI was 1630 nM.

And the GI50 (KM12 colon)?
The GI50 was 310 nM.

And the TGI (KM12 colon)?
The TGI was 1220 nM.

What about the GI50 (ACHN renal) of the same molecule?
The GI50 was 438 nM.

And the TGI (ACHN renal)?
Its TGI is greater than 8750 nM.

What about the GI50 (U251 CNS) of the same molecule?
Its GI50 is 158 nM.

And the TGI (U251 CNS)?
Its TGI is 315 nM.

And the GI50 (RXF 393 renal)?
Its GI50 is 194 nM.

What about the TGI (RXF 393 renal) of the same molecule?
The TGI was 422 nM.

And the GI50 (IGROV1 ovarian)?
The GI50 was 279 nM.

And the TGI (IGROV1 ovarian)?
Its TGI is 1570 nM.

What about the GI50 (SN12C renal) of the same molecule?
Its GI50 is 277 nM.

What about the TGI (SN12C renal) of the same molecule?
The TGI was greater than 8750 nM.

What about the GI50 (CCRF-CEM leukemia) of the same molecule?
The GI50 was 251 nM.

What about the TGI (CCRF-CEM leukemia) of the same molecule?
The TGI was greater than 8750 nM.

And the GI50 (DU-145 prostate)?
The GI50 was 353 nM.

And the TGI (DU-145 prostate)?
Its TGI is 2520 nM.

And the GI50 (RPMI-8226 leukemia)?
Its GI50 is 256 nM.

What about the TGI (RPMI-8226 leukemia) of the same molecule?
The TGI was 821 nM.

And the GI50 (OVCAR-3 ovarian)?
Its GI50 is 192 nM.

And the TGI (OVCAR-3 ovarian)?
The TGI was 532 nM.

What about the GI50 (MCF7 breast) of the same molecule?
Its GI50 is 286 nM.

What about the TGI (MCF7 breast) of the same molecule?
Its TGI is 2200 nM.

And the GI50 (NCI-H226 lung)?
Its GI50 is 1130 nM.

What about the TGI (NCI-H226 lung) of the same molecule?
The TGI was 3810 nM.

What about the GI50 (HCT-116 colon) of the same molecule?
The GI50 was 221 nM.

And the TGI (HCT-116 colon)?
Its TGI is 906 nM.

And the GI50 (T-47D breast)?
Its GI50 is 195 nM.

And the TGI (T-47D breast)?
Its TGI is 713 nM.

What about the GI50 (SF-295 CNS) of the same molecule?
Its GI50 is 432 nM.

And the TGI (SF-295 CNS)?
Its TGI is 5130 nM.

What about the GI50 (UACC-257 melanoma) of the same molecule?
The GI50 was 456 nM.

What about the TGI (UACC-257 melanoma) of the same molecule?
Its TGI is 2200 nM.

And the GI50 (786-0 renal)?
Its GI50 is 325 nM.

What about the TGI (786-0 renal) of the same molecule?
Its TGI is 1430 nM.

What about the GI50 (COLO 205 colon) of the same molecule?
The GI50 was 169 nM.

And the TGI (COLO 205 colon)?
Its TGI is 368 nM.

What about the GI50 (SF-268 CNS) of the same molecule?
The GI50 was 305 nM.

And the TGI (SF-268 CNS)?
Its TGI is 7800 nM.

And the GI50 (HCT-15 colon)?
The GI50 was 718 nM.

And the TGI (HCT-15 colon)?
The TGI was 5730 nM.

What about the GI50 (UACC-62 melanoma) of the same molecule?
The GI50 was 204 nM.

And the TGI (UACC-62 melanoma)?
The TGI was 545 nM.

What about the GI50 (SNB-19 CNS) of the same molecule?
Its GI50 is 550 nM.

What about the TGI (SNB-19 CNS) of the same molecule?
Its TGI is greater than 8750 nM.

And the GI50 (NCI/ADR-RES ovarian)?
Its GI50 is 4240 nM.

What about the TGI (NCI/ADR-RES ovarian) of the same molecule?
Its TGI is greater than 8750 nM.

What about the GI50 (A549 NSCLC) of the same molecule?
Its GI50 is 529 nM.

What about the TGI (A549 NSCLC) of the same molecule?
The TGI was 2120 nM.

And the GI50 (NCI-H23 lung)?
The GI50 was 300 nM.

What about the TGI (NCI-H23 lung) of the same molecule?
Its TGI is 1930 nM.

What about the GI50 (SK-MEL-2 melanoma) of the same molecule?
Its GI50 is 281 nM.

What about the TGI (SK-MEL-2 melanoma) of the same molecule?
Its TGI is 969 nM.

And the GI50 (LOX IMVI melanoma)?
The GI50 was 150 nM.

What about the TGI (LOX IMVI melanoma) of the same molecule?
Its TGI is 306 nM.

And the GI50 (EKVX NSCLC)?
Its GI50 is 414 nM.

And the TGI (EKVX NSCLC)?
The TGI was 6310 nM.

What about the GI50 (SK-MEL-28 melanoma) of the same molecule?
The GI50 was 311 nM.

What about the TGI (SK-MEL-28 melanoma) of the same molecule?
The TGI was 1740 nM.

What about the GI50 (BT-549 breast) of the same molecule?
Its GI50 is 241 nM.

And the TGI (BT-549 breast)?
Its TGI is 772 nM.

What about the GI50 (HS 578T breast) of the same molecule?
The GI50 was 773 nM.

What about the TGI (HS 578T breast) of the same molecule?
Its TGI is greater than 8750 nM.

What about the GI50 (SK-MEL-5 melanoma) of the same molecule?
Its GI50 is 737 nM.

What about the TGI (SK-MEL-5 melanoma) of the same molecule?
The TGI was 1870 nM.

What about the GI50 (OVCAR-4 ovarian) of the same molecule?
Its GI50 is 317 nM.

And the TGI (OVCAR-4 ovarian)?
The TGI was greater than 8750 nM.

What about the GI50 (MDA-MB-231 breast) of the same molecule?
Its GI50 is 249 nM.

What about the TGI (MDA-MB-231 breast) of the same molecule?
The TGI was 697 nM.

And the GI50 (SK-OV-3 ovarian)?
The GI50 was 1620 nM.

What about the TGI (SK-OV-3 ovarian) of the same molecule?
The TGI was greater than 8750 nM.

And the GI50 (K-562 leukemia)?
The GI50 was 317 nM.

And the TGI (K-562 leukemia)?
Its TGI is greater than 8750 nM.

And the GI50 (HOP-62 NSCLC)?
The GI50 was 259 nM.

And the TGI (HOP-62 NSCLC)?
Its TGI is 775 nM.

What about the GI50 (SNB-75 CNS) of the same molecule?
Its GI50 is 4800 nM.

What about the TGI (SNB-75 CNS) of the same molecule?
The TGI was greater than 8750 nM.

And the GI50 (HT29 colon)?
Its GI50 is 313 nM.

What about the TGI (HT29 colon) of the same molecule?
The TGI was 1210 nM.

What about the GI50 (HCC-2998 colon) of the same molecule?
The GI50 was 264 nM.

And the TGI (HCC-2998 colon)?
The TGI was 888 nM.

And the GI50 (HL-60(TB) leukemia)?
Its GI50 is 243 nM.

And the TGI (HL-60(TB) leukemia)?
Its TGI is 760 nM.

What about the GI50 (TK-10 renal) of the same molecule?
The GI50 was 478 nM.

What about the TGI (TK-10 renal) of the same molecule?
The TGI was 3530 nM.

And the GI50 (SF-539 CNS)?
Its GI50 is 322 nM.

And the TGI (SF-539 CNS)?
The TGI was greater than 8750 nM.

What about the GI50 (MOLT-4 leukemia) of the same molecule?
The GI50 was 266 nM.

And the TGI (MOLT-4 leukemia)?
Its TGI is greater than 8750 nM.

And the GI50 (NCI-H522 lung)?
The GI50 was 218 nM.

And the TGI (NCI-H522 lung)?
Its TGI is 797 nM.

What about the GI50 (OVCAR-8 ovarian) of the same molecule?
The GI50 was 277 nM.

And the TGI (OVCAR-8 ovarian)?
The TGI was greater than 8750 nM.

And the GI50 (OVCAR-5 ovarian)?
Its GI50 is 1080 nM.

And the TGI (OVCAR-5 ovarian)?
The TGI was greater than 8750 nM.

And the GI50 (PC-3 prostate)?
The GI50 was 342 nM.

What about the TGI (PC-3 prostate) of the same molecule?
Its TGI is 1500 nM.

And the GI50 (NCI-H460 lung)?
The GI50 was 488 nM.

And the TGI (NCI-H460 lung)?
Its TGI is 2870 nM.
